Results on 22 compounds are retold here after US20250320246A1, “3-AZASTEROID COMPOUNDS FOR THE TREATMENT OF DISEASES RELATED TO MITROCHONDRIAL FUNCTION” (NZP UK LIMITED, priority 2022, published 2025).

The subject of the assay is sporadic PD patient fibroblasts. Kind of assay: Cellular ATP levels in sporadic PD patient fibroblasts, Preliminary ATP assay. In kind it is cell-based, human. Conditions: Homo sapiens, Fibroblast, 24 h, % of vehicle treated sPD fibroblasts, 3 sporadic PD patients; for activity at 0.1 µM: 100 nM, read-out: Average ATP Response 100 nM; for activity at 1 µM: read-out: Average ATP Response 1 μM. The method, then: In some cases, a preliminary ATP protocol was used in which EC50 was not determined. The preliminary ATP protocol is generally as described in Mortiboys et al 2008. Briefly, fibroblasts were cultured and plated into white, clear-bottom 384 well plates at a concentration of 4000 cells per well in 50 μl of media volume. The plates are left overnight in an incubator to allow the fibroblasts to adhere to the plate surface. The following morning the Glucose based medium is replaced with 25 μl of Galactose based medium. The cells were then dosed with 100 nM and 1 μM concentrations of the compounds using a ECHO 550 liquid handling system. After dosing the wells are topped up with a further 25 μl of Galactose based medium and then left in an incubator for 24 hours. Following this incubation, the medium is removed from the plate and the wells are washed twice with sterile PBS. The wells are filled with 20 μl of Sterile PBS followed by 10 μl of Lysis solution from the ATPlite™ Luminescence ATP detection assay system (Perkin Elmer), including 14 cell free wells to use as blank controls. The plate is then placed on a rotary shaker for 10 mins at 700 rpm. Following the shaking 10 μl of ATP substrate solution (Perkin Elmer) is added to each well and a further 5 min of shaking. The plate is then incubated in the dark for 10 minutes prior to reading. Using a FLUOstar® Omega plate reader, luminescence intensity is recorded. Following the ATP assay the plates are immediately assayed for DNA content in a CyQUANT® assay.
Immediately following The ATP assay DNA content is assessed with the CyQUANT® NF Cell Proliferation Assay Kit (ThermoFisher). CyQUANT® buffer is prepared immediately before the assay and is comprised of 2 μl CyQUANT® dye per ml×1 HBSS solution. 10 μl of CyQUANT® buffer is added to each well. Cell plates were then incubated for 1 hour before being read on a FLUOStar® Plate reader with excitation at 497 nm and emission at 520 nm.
The ATP Quantification for each well is determined as set out above.

For `C[C@H](CCCC(=O)O)[C@H]1CC[C@H]2[C@@H]3[C@@H](O)C[C@@H]4CN(C(=O)OCc5ccccc5)CC[C@]4(C)[C@H]3CC[C@]12C` [Compound 50b, N-(benzyloxycarbonyl)-3-aza-7β-hydroxy-24-homo-5β-cholan-25-oic acid], the activity at 0.1 µM came out at 101% and the activity at 1 µM is 99.8%.

Take `C[C@H](CCC(=O)NCCS(=O)(=O)O)[C@H]1CC[C@H]2[C@@H]3[C@@H](O)C[C@@H]4CNCC[C@]4(C)[C@H]3CC[C@]12C` [Compound 51a, N-(3-Aza-7β-hydroxy-5β-cholan-24-amide)-ethylsulfonic acid]: the activity at 0.1 µM was 101% and the activity at 1 µM amounted to 107%.

For `C[C@H](CCC(=O)NCC(=O)O)[C@H]1CC[C@H]2[C@@H]3[C@@H](O)C[C@@H]4CNCC[C@]4(C)[C@H]3CC[C@]12C` [Compound 52a, N-(3-Aza-7β-hydroxy-5β-cholan-24-amide)-acetic acid], the activity at 0.1 µM was found to be 106% and the activity at 1 µM came out at 110%.

On to `C[C@H](CCC(=O)N[C@@H](COC(C)(C)C)C(=O)O)[C@H]1CC[C@H]2[C@@H]3[C@@H](O)C[C@@H]4CN(C)CC[C@]4(C)[C@H]3CC[C@]12C` [Compound 53a, N-(3-Methyl-aza-7β-hydroxy-5β-cholan-24-oyl)-(2S)-2-amino-3-[(2-methylpropan-2-yl)oxy]propanoic acid], for which the activity at 0.1 µM is 109% and the activity at 1 µM was found to be 102%.

On to `C[C@H](CCC(=O)N[C@H](CC(=O)O)c1ccccc1)[C@H]1CC[C@H]2[C@@H]3[C@@H](O)C[C@@H]4CN(C)CC[C@]4(C)[C@H]3CC[C@]12C` [Compound 54a, N-(3-Methyl-aza-7β-hydroxy-5β-cholan-24-oyl)-(R)-3-amino-3-phenylpropanoic acid], for which the activity at 0.1 µM stood at 109% and the activity at 1 µM stood at 107%.

`C[C@H](CCC(=O)Nc1ccc(F)cc1)[C@H]1CC[C@H]2[C@@H]3[C@@H](O)C[C@@H]4CN(C)CC[C@]4(C)[C@H]3CC[C@]12C` [Compound 55a, N-(3-Methyl-aza-7β-hydroxy-5β-cholan-24-oyl)-1-amino-4-fluorobenzene]: the activity at 0.1 µM was found to be 110% and the activity at 1 µM was found to be 109%.

With `C[C@H](CCC(=O)N1CCOCC1)[C@H]1CC[C@H]2[C@@H]3[C@@H](O)C[C@@H]4CNCC[C@]4(C)[C@H]3CC[C@]12C` [Compound 56a, N-(3-Aza-7β-hydroxy-5β-cholan-24-oyl)-morpholine], the activity at 0.1 µM came out at 109% and the activity at 1 µM worked out at 100%.

In the case of `C[C@H](CCC(=O)N[C@@H](CO)C(=O)O)[C@H]1CC[C@H]2[C@@H]3[C@@H](O)C[C@@H]4CNCC[C@]4(C)[C@H]3CC[C@]12C` [Compound 57a, N-(3-Aza-7β-hydroxy-5β-cholan-24-oyl)-(S)-2-amino-3-hydroxypropanoic acid], the activity at 0.1 µM worked out at 109% and the activity at 1 µM came out at 107%.

For `C[C@H](CCC(=O)NCC(F)C(=O)O)[C@H]1CC[C@H]2[C@@H]3[C@@H](O)C[C@@H]4CNCC[C@]4(C)[C@H]3CC[C@]12C` (stereo partly drawn) [Compound 58a, N-(3-Aza-7β-hydroxy-5β-cholan-24-oyl)-3-amino-2-fluoropropanoic acid], the activity at 0.1 µM came out at 102% and the activity at 1 µM was 103%.

As to `C[C@H](CCC(=O)N(C1CCCCC1)C1CCCCC1)[C@H]1CC[C@H]2[C@@H]3[C@@H](O)C[C@@H]4CN(C)CC[C@]4(C)[C@H]3CC[C@]12C` [Compound 59a, N-(Cyclohexyl)-N-(3-methyl-aza-7β-hydroxy-5β-cholan-24-oyl)-cyclohexanamine], the activity at 0.1 µM is 106% and the activity at 1 µM came to 99.7%.

Regarding `C[C@H](CCC(=O)Nc1ccc(C(=O)O)cc1)[C@H]1CC[C@H]2[C@@H]3[C@@H](O)C[C@@H]4CNCC[C@]4(C)[C@H]3CC[C@]12C` [Compound 60a, N-(3-Aza-7β-hydroxy-5β-cholan-24-oyl)-4-aminobenzoic acid], the activity at 0.1 µM is 102% and the activity at 1 µM was 102%.

As to `CSCC[C@H](NC(=O)CC[C@@H](C)[C@H]1CC[C@H]2[C@@H]3[C@@H](O)C[C@@H]4CNCC[C@]4(C)[C@H]3CC[C@]12C)C(=O)O` [Compound 61a, N-(3-Aza-7β-hydroxy-5β-cholan-24-oyl)-(S)-2-amino-4-(methylthio)butanoic acid], the activity at 0.1 µM was found to be 105% and the activity at 1 µM was determined as 108%.

Take `C[C@H](CCC(=O)NCCC(=O)O)[C@H]1CC[C@H]2[C@@H]3[C@@H](O)C[C@@H]4CNCC[C@]4(C)[C@H]3CC[C@]12C` [Compound 62a, N-(3-Aza-7β-hydroxy-5β-cholan-24-amide)-propanoic acid]: the activity at 0.1 µM came to 108% and the activity at 1 µM was 108%.

Turning to `CC(C)OC(=O)c1ccc(NC(=O)CC[C@@H](C)[C@H]2CC[C@H]3[C@@H]4[C@@H](O)C[C@@H]5CNCC[C@]5(C)[C@H]4CC[C@]23C)cc1` [Compound 63a, N-(3-Aza-7β-hydroxy-5β-cholan-24-oyl)-(isopropyl-4-aminobenzoate)], the activity at 0.1 µM came out at 106% and the activity at 1 µM stood at 104%.

For the compound `CC(C)[C@H](NC(=O)CC[C@@H](C)[C@H]1CC[C@H]2[C@@H]3[C@@H](O)C[C@@H]4CNCC[C@]4(C)[C@H]3CC[C@]12C)C(=O)O` [Compound 65a, N-(3-Aza-7β-hydroxy-5β-cholan-24-oyl)-(S)-2-amino-3-methylbutanoic acid], the activity at 0.1 µM amounted to 111% and the activity at 1 µM was 108%.

Consider `CC[C@H](C)[C@H](NC(=O)CC[C@@H](C)[C@H]1CC[C@H]2[C@@H]3[C@@H](O)C[C@@H]4CNCC[C@]4(C)[C@H]3CC[C@]12C)C(=O)O` [Compound 66a, N-(3-Aza-7β-hydroxy-5β-cholan-24-oyl)-(2S,3S)-2-amino-3-methylpentanoic acid], for which the activity at 0.1 µM came to 109% and the activity at 1 µM was 111%.

As to `C[C@H](CCC(=O)N(C)CC(=O)O)[C@H]1CC[C@H]2[C@@H]3[C@@H](O)C[C@@H]4CNCC[C@]4(C)[C@H]3CC[C@]12C` [Compound 67a, N-Methyl-N-(3-aza-7β-hydroxy-5β-cholan-24-oyl)-glycine], the activity at 0.1 µM is 108% and the activity at 1 µM stood at 107%.

As to `C[C@H](NC(=O)CC[C@@H](C)[C@H]1CC[C@H]2[C@@H]3[C@@H](O)C[C@@H]4CNCC[C@]4(C)[C@H]3CC[C@]12C)C(=O)O` [Compound 68a, N-(3-Aza-7β-hydroxy-5β-cholan-24-oyl)-(S)-2-aminopropanoic acid], the activity at 0.1 µM stood at 109% and the activity at 1 µM was 99%.

Consider `C[C@H](CCCC(=O)N[C@@H](CC(=O)O)C(=O)O)[C@H]1CC[C@H]2[C@@H]3[C@@H](O)C[C@@H]4CNCC[C@]4(C)[C@H]3CC[C@]12C` [Compound 70b, N-(3-Aza-7β-hydroxy-25-homo-5β-cholan-25-oyl)-(S)-2-aminobutanedioic acid], for which the activity at 0.1 µM amounted to 106% and the activity at 1 µM stood at 107%.

On to `C[C@H](CCCC(=O)N[C@@H](COC(C)(C)C)C(=O)O)[C@H]1CC[C@H]2[C@@H]3[C@@H](O)C[C@@H]4CNCC[C@]4(C)[C@H]3CC[C@]12C` [Compound 71b, N-(3-Aza-7β-hydroxy-25-homo-5β-cholan-25-oyl)-(2S)-2-amino-3-[(2-methylpropan-2-yl)oxy]propanoic acid], for which the activity at 0.1 µM worked out at 106% and the activity at 1 µM was found to be 104%.

As to `C[C@H](CCCC(=O)NCCS(=O)(=O)O)[C@H]1CC[C@H]2[C@@H]3[C@@H](O)C[C@@H]4CNCC[C@]4(C)[C@H]3CC[C@]12C` [Compound 72b, N-(3-Aza-7β-hydroxy-25-homo-5β-cholan-25-amide)-ethylsulfonic acid], the activity at 0.1 µM is 102% and the activity at 1 µM is 112%.

For `C[C@H](CCCC(=O)N[C@@H](Cc1ccccc1)C(=O)O)[C@H]1CC[C@H]2[C@@H]3[C@@H](O)C[C@@H]4CNCC[C@]4(C)[C@H]3CC[C@]12C` [Compound 73b, N-(3-Aza-7β-hydroxy-25-homo-5β-cholan-25-oyl)-(S)-2-amino-3-phenylpropanoic acid], the activity at 0.1 µM was found to be 99.6% and the activity at 1 µM was 100%.
